Source: PubChem BioAssay (NCI)
“And” between values parts separate entries of the source, which are not always exact repeats. Equal values may be shown once.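 Five compound concentrations were applied to cells in 96-well plates for 48 hours; endpoints were derived by simple linear interpolation of the resulting dose-response curve. Abbreviation: GI50, concentration required for 50% inhibition of growth. Definition used: TGI = concentration required for complete inhibition of growth.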

Legend:
Test in all cases: NCI tumour cell line growth inhibition, 48 h
MDA-MB-435 = tested on: MDA-MB-435
SR leukemia = tested on: SR leukemia
MALME-3M melanoma = tested on: MALME-3M melanoma
A498 renal = tested on: A498 renal
MDA-MB-231 breast = tested on: MDA-MB-231 breast
U251 CNS = tested on: U251 CNS
K-562 leukemia = tested on: K-562 leukemia
SNB-75 CNS = tested on: SNB-75 CNS
CAKI-1 renal = tested on: CAKI-1 renal
M14 melanoma = tested on: M14 melanoma
HOP-62 NSCLC = tested on: HOP-62 NSCLC
SK-MEL-28 melanoma = tested on: SK-MEL-28 melanoma
SK-MEL-2 melanoma = tested on: SK-MEL-2 melanoma
MDA-N = tested on: MDA-N
IGROV1 ovarian = tested on: IGROV1 ovarian
SW-620 colon = tested on: SW-620 colon
OVCAR-3 ovarian = tested on: OVCAR-3 ovarian
SNB-19 CNS = tested on: SNB-19 CNS
NCI-H522 lung = tested on: NCI-H522 lung
EKVX NSCLC = tested on: EKVX NSCLC
HOP-92 NSCLC = tested on: HOP-92 NSCLC
HCT-116 colon = tested on: HCT-116 colon
SN12C renal = tested on: SN12C renal
A549 NSCLC = tested on: A549 NSCLC
SF-295 CNS = tested on: SF-295 CNS
UACC-257 melanoma = tested on: UACC-257 melanoma
DU-145 prostate = tested on: DU-145 prostate
HL-60(TB) leukemia = tested on: HL-60(TB) leukemia
T-47D breast = tested on: T-47D breast
NCI-H226 lung = tested on: NCI-H226 lung
COLO 205 colon = tested on: COLO 205 colon
HS 578T breast = tested on: HS 578T breast
UACC-62 melanoma = tested on: UACC-62 melanoma
SF-539 CNS = tested on: SF-539 CNS
MOLT-4 leukemia = tested on: MOLT-4 leukemia
RXF 393 renal = tested on: RXF 393 renal
NCI/ADR-RES ovarian = tested on: NCI/ADR-RES ovarian
HT29 colon = tested on: HT29 colon
CCRF-CEM leukemia = tested on: CCRF-CEM leukemia
RPMI-8226 leukemia = tested on: RPMI-8226 leukemia
OVCAR-8 ovarian = tested on: OVCAR-8 ovarian
SK-MEL-5 melanoma = tested on: SK-MEL-5 melanoma
BT-549 breast = tested on: BT-549 breast
PC-3 prostate = tested on: PC-3 prostate
KM12 colon = tested on: KM12 colon
ACHN renal = tested on: ACHN renal
NCI-H23 lung = tested on: NCI-H23 lung
HCC-2998 colon = tested on: HCC-2998 colon
SK-OV-3 ovarian = tested on: SK-OV-3 ovarian
HCT-15 colon = tested on: HCT-15 colon
MCF7 breast = tested on: MCF7 breast
OVCAR-5 ovarian = tested on: OVCAR-5 ovarian
OVCAR-4 ovarian = tested on: OVCAR-4 ovarian
NCI-H460 lung = tested on: NCI-H460 lung
TK-10 renal = tested on: TK-10 renal
786-0 renal = tested on: 786-0 renal
SF-268 CNS = tested on: SF-268 CNS
DMS 114 small cell lung = tested on: DMS 114 small cell lung
DMS 273 small cell lung = tested on: DMS 273 small cell lung

Compound CCCCC[C@@H]1OCO[C@@]2(C)/C=C(C)/C=C/C(=O)O[C@H]([C@@H](C)[C@@H](O)[C@H](C)[C@@]3(O)C[C@@H](O[C@H]4C[C@@H](O)[C@H](O)[C@@H](C)O4)[C@H](C)[C@@H](C)O3)[C@@H](OC)/C=C/C=C(\C)C[C@@H]1[C@@H]2O (stereo in doubt) has a TGI (MDA-MB-435) of 541 nM, a TGI (SR leukemia) of less than 5 nM and a TGI (MALME-3M melanoma) of 308 nM. It also gave a TGI (A498 renal) of 82.9 nM, a TGI (MDA-MB-231 breast) of 1590 nM and a TGI (U251 CNS) of 5.36 µM. For the same compound, the TGI (K-562 leukemia) was 7.54 µM, the TGI (SNB-75 CNS) was 2640 nM and the TGI (CAKI-1 renal) was 2690 nM. For the same compound, the TGI (M14 melanoma) was less than 5 nM, the TGI (HOP-62 NSCLC) was 7.02 µM and the TGI (SK-MEL-28 melanoma) was 1680 nM. For the same compound, the TGI (SK-MEL-2 melanoma) was less than 5 nM, the TGI (MDA-N) was 203 nM and the TGI (IGROV1 ovarian) was 8.22 µM. The TGI (SW-620 colon) was 6.67 µM, the TGI (OVCAR-3 ovarian) was 2460 nM and the TGI (SNB-19 CNS) was 7.78 µM. The TGI (NCI-H522 lung) was 7460 nM, the TGI (EKVX NSCLC) was 3.07 µM and the TGI (HOP-92 NSCLC) was 99.2 nM. For the same compound, the TGI (HCT-116 colon) was 609 nM, the TGI (SN12C renal) was 3.49 µM and the TGI (A549 NSCLC) was 733 nM. For the same compound, the TGI (SF-295 CNS) was 56.3 nM, the TGI (UACC-257 melanoma) was less than 5 nM and the TGI (DU-145 prostate) was 7.9 µM. It also gave a TGI (HL-60(TB) leukemia) of 58.7 nM, a TGI (T-47D breast) of 9.09 µM and a TGI (NCI-H226 lung) of 46.8 nM. For the same compound, the TGI (COLO 205 colon) was 666 nM, the TGI (HS 578T breast) was 50 µM and the TGI (UACC-62 melanoma) was less than 5 nM. For the same compound, the TGI (SF-539 CNS) was 3.23 µM, the TGI (MOLT-4 leukemia) was 809 nM and the TGI (RXF 393 renal) was 1190 nM. It also gave a TGI (NCI/ADR-RES ovarian) of 15.8 µM, a TGI (HT29 colon) of 54.4 nM and a TGI (CCRF-CEM leukemia) of 455 nM. The TGI (RPMI-8226 leukemia) was 50 µM, the TGI (OVCAR-8 ovarian) was 7380 nM and the TGI (SK-MEL-5 melanoma) was less than 5 nM. It also gave a TGI (BT-549 breast) of 16.5 µM, a TGI (PC-3 prostate) of 1640 nM and a TGI (KM12 colon) of 5.36 µM. For the same compound, the TGI (ACHN renal) was 1330 nM, the TGI (NCI-H23 lung) was 11.5 µM and the TGI (HCC-2998 colon) was 745 nM. For the same compound, the TGI (SK-OV-3 ovarian) was 5.38 µM, the TGI (HCT-15 colon) was 7.17 µM and the TGI (MCF7 breast) was 3.32 µM. For the same compound, the TGI (OVCAR-5 ovarian) was 215 nM, the TGI (OVCAR-4 ovarian) was 8.38 µM and the TGI (NCI-H460 lung) was 5.3 µM. It also gave a TGI (TK-10 renal) of 8.83 µM, a TGI (786-0 renal) of 676 nM and a TGI (SF-268 CNS) of 7.77 µM.

For NC(=O)c1cn(C2OC(CO)C(O)C2O)c2ncnc(N)c12 (centres undefined), the TGI (MDA-MB-435) was 36 nM, the GI50 (SR leukemia) was 12.8 nM and the TGI (SR leukemia) was 94.6 nM. The TGI (MDA-MB-231 breast) was 102 nM, the GI50 (NCI-H522 lung) was 48.2 nM and 21 nM and the TGI (NCI-H522 lung) was 206 nM and 70.1 nM. The TGI (DMS 114 small cell lung) was 205 nM and 326 nM, the TGI (DU-145 prostate) was 0.0487 µM and the TGI (T-47D breast) was 0.0523 µM. The TGI (HS 578T breast) was 0.0758 µM, the GI50 (CCRF-CEM leukemia) was 5.59 nM and 24.6 nM and 6.27 nM and the TGI (CCRF-CEM leukemia) was 148 nM and 75.9 nM. For the same compound, the TGI (OVCAR-8 ovarian) was 383 nM and 904 nM and 92.1 nM, the TGI (BT-549 breast) was 0.0389 µM and the TGI (PC-3 prostate) was 5.74 nM. For the same compound, the GI50 (DMS 273 small cell lung) was 87.5 nM and 70 nM, the TGI (DMS 273 small cell lung) was 118 nM [middle of 4 runs] and the TGI (ACHN renal) was 103 nM. For the same compound, the TGI (HCC-2998 colon) was 216 nM [middle of 4 runs], the GI50 (MCF7 breast) was 20.7 nM and the TGI (TK-10 renal) was 0.0707 µM. For the same compound, the TGI (786-0 renal) was 68.4 nM.
